Laboratory results from patent US20260151492A1 (priority 2022, published 2026).
Like-named read-outs stand apart in the source and are kept apart here.

Columns and labels:
Sigma 2 [1] = target: T1, Sigma 2 (Homo sapiens, UniProt Q5BJF2); conditions: literature (Pergolizi, 2023; Bonaventura, 2021); cited from earlier work
DRD2L [2] = target: T2, DRD2L (Homo sapiens, UniProt P14416); conditions: statement on ketamine, no own data shown; cited from earlier work
Mecp2-null mice = conditions: cited from earlier work
Opiate μ = Opiate μ (Homo sapiens, UniProt P35372); assay: Opiate μ binding assay
Opiate k = Opiate k (Homo sapiens, UniProt P41145); assay: Opiate k binding assay
Sigma 2 [3] = target: T1, Sigma 2; assay: Sigma 2 binding assay
DRD2L [4] = target: T2, DRD2L; assay: D2L human dopamine GPCR cell based agonist cAMP assay
NMDAR 1A/2B = NMDAR 1A/2B (Homo sapiens, UniProt Q05586+Q13224); assay: NMDAR 1A/2B antagonist (ion channel blocker) assay; assay type: cell-based
NMDAR 1A/2B, sequence (Q13224 27-1484, other chains not shown): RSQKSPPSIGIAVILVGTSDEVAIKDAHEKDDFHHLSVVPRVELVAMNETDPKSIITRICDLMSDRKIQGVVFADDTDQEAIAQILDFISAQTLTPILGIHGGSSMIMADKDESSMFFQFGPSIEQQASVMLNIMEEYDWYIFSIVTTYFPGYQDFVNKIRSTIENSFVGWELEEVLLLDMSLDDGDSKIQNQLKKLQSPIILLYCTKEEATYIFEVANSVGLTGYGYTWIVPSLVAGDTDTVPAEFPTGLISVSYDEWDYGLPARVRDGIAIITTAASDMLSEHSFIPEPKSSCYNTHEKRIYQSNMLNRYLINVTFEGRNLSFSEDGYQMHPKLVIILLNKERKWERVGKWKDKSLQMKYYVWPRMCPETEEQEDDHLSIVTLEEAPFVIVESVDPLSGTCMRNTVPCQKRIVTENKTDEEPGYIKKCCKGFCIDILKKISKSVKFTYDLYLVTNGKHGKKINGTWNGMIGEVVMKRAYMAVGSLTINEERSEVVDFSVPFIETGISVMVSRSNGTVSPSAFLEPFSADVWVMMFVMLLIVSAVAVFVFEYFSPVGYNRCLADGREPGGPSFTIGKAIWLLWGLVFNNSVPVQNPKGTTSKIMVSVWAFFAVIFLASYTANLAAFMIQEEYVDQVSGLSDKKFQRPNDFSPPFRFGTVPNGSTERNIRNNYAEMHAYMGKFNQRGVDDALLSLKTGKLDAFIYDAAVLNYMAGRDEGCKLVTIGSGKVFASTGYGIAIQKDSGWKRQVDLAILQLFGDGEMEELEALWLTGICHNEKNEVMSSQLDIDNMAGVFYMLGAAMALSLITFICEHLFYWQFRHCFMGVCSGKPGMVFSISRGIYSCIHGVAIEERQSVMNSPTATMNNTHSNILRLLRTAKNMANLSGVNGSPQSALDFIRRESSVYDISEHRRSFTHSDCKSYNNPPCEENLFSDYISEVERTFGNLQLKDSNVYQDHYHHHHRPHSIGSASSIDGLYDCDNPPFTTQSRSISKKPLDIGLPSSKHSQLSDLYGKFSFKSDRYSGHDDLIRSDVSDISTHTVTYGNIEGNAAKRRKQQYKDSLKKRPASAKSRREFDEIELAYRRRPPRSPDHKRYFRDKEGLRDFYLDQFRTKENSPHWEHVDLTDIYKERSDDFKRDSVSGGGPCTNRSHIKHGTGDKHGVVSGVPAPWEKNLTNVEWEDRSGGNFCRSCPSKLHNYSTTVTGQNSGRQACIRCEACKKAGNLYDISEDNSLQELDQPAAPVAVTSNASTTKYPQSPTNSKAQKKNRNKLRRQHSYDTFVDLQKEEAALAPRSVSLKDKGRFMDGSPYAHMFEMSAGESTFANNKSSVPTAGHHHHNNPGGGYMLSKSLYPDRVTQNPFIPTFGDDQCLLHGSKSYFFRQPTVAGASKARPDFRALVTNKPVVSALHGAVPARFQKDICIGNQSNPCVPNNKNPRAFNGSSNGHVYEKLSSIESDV

T2 sequence (P14416 whole entry): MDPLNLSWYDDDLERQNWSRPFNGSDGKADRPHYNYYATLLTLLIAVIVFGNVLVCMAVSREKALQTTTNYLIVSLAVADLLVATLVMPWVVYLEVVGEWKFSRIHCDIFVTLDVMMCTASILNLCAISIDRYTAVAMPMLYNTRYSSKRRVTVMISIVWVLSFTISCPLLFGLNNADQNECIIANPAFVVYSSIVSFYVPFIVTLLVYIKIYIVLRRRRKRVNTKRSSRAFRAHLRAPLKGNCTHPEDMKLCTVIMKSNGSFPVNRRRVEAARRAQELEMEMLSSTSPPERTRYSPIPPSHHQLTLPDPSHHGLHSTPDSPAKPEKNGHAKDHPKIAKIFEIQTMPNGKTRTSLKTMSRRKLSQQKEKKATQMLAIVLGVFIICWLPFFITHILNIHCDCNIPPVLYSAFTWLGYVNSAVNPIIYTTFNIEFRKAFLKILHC
T1 sequence (Q5BJF2 whole entry): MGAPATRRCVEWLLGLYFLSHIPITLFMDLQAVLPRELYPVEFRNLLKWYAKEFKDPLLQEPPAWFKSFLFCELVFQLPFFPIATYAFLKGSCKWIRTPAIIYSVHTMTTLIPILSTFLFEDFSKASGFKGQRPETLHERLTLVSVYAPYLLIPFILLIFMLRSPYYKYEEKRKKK
Opiate k, sequence (P41145 whole entry): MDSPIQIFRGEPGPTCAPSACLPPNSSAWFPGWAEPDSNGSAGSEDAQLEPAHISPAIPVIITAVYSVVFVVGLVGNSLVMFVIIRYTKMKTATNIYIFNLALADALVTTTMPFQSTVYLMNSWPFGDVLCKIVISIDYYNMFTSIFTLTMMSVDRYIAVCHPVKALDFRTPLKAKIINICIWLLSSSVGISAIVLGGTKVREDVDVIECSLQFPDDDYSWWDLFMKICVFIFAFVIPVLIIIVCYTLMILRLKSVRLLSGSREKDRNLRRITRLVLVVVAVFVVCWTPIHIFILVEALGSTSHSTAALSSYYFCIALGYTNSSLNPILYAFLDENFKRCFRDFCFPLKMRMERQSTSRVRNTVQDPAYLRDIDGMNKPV
Opiate μ, sequence (P35372 whole entry): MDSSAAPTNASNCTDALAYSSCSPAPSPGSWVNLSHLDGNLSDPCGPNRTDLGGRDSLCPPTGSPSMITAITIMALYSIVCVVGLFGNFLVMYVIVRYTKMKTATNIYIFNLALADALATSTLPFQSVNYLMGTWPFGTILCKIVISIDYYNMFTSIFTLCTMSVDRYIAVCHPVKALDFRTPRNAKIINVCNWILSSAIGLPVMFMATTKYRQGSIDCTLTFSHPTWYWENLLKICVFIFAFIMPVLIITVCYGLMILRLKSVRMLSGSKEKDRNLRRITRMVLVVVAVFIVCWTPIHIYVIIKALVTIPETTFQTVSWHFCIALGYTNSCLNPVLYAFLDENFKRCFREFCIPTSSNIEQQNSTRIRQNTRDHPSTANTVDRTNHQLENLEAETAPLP

For `CNC1(c2ccccc2Cl)CCCCC1=O` (racemic) [Ketamine, (R,S)-ketamine], the “Binding to sigma2 receptors (in words)” value (Sigma 2 [1]) is listed as “binds sigma2 receptors at mM concentrations”, the “Affinity for dopamine 2 receptors (in words)” value (DRD2L [2]) is listed as “not shown any affinity” and the Improvement of survival (Mecp2-null mice; 8 mg/kg IP every day for 40 days (total 320 mg/kg), at 80 days post natal) is listed as 50%. The “Efficacy of treatment (in words)” value (Mecp2-null mice; 8 mg/kg/day ip from day 15 to day 55 (320 mg/kg total)) was “some efficacy”, the “Efficacy of treatment (in words)” value (Mecp2-null mice; 8 mg/kg/day ip from day 30 to day 55 (200 mg/kg total)) was “not effective” and the Survival (Mecp2-null mice; after treatment with 320 mg/kg of ketamine, published data) was 50%.

With `NC1(c2ccccc2Cl)CCCCC1=O` (racemic) [NorKetamine, (R,S)-Norketamine] the “Ki, Opioid μ receptors” value (Opiate μ) was “does not bind”, the IC50 (Opiate k) was 667 µM and the Ki (Opiate k) was 381 µM. For the same molecule, the IC50 (Sigma 2 [3]) was 246 µM, the “Binding to Dopamine 2 receptors (in words)” value (DRD2L [4]) was “does not appear to bind” and the IC50 (NMDAR 1A/2B; IC50, NMDAR 1A/2B antagonist assay, FIG. 15A) was 6.96 µM. For the same molecule, the IC50 (NMDAR 1A/2B; NMDAR 1A/2B Ion channel blocker, Table 5) was 6.9 µM.
